# In US10782295B2, “Cysteine-reactive ligand discovery in proteomes” (THE SCRIPPS RESEARCH INSTITUTE, priority 2013, dated 2020):
# Key:
# JNK pathway activation [1] = test: Western blotting of phospho-JNK in C22A-ZAK-transfected HEK-293T cells; assay type: cell-based, human
# Protocol: (§1) We next set out to assess the functional effects of HNE modification of ZAK in human cells. HEK-293T cells were stably transfected with cDNAs for WT-ZAK, C22A-ZAK, or K45M-ZAK and the activation state of their MAPK signaling pathways was monitored by western blotting with anti-phosphoprotein antibodies. […] We next treated cells with H2O2 (1 mM, 30 min) to induce oxidative stress, a process that is known to activate the JNK pathway^41,42. H2O2 treatment stimulated JNK activity in both WT- and C22A-ZAK-transfected cells (but not K45M-ZAK-transfected cells), with WT-ZAK cells showing the greater level of activation (FIG. 5b,c). […] We interpret these findings to indicate the existence of both ZAK-dependent and ZAK-independent pathways for HNE modulation of JNK activation (FIG. 5d). By modifying C22 on ZAK, HNE blocks the contribution that this kinase makes to the activation of the JNK pathway. […]
# (§2) Mouse and rabbit monoclonal antibodies against phospho-ERK 1/2 (Thr202/Tyr204), phosphor-SAPK/JNK (Thr183/[…]), phosphor-p38 MAPK (Thr180/[…]) and total ERK 1/2, SAPK/JNK and p38 MAPK were purchased from Cell Signaling Technology. […] Protein band intensities were quantified by ImageJ8 and ratios of phosphor-MAPK over total MAPK were computed. […]
# JNK pathway activation [2] = test: Western blotting of phospho-JNK in mock-transfected HEK-293T cells; assay type: cell-based, human; settings: 50 or 100 μM, 60 min
# Protocol: as §1, §2
smiles,measurement,setting,value
"CCCCCC(O)/C=C/C=O (stereo not drawn) [4-HNE, 4-Hydroxynonenal]","JNK activation by HNE alone, C22A-ZAK-transfected cells","JNK pathway activation [1]; 50 or 100 μM, 60 min",dramatic concentration-dependent activation of JNK
same,"H2O2-dependent JNK activation, C22A-ZAK cells","JNK pathway activation [1]; pre-treatment 100 μM, 30 min, then H2O2 1 mM, 30 min",hyper-activating JNK activity
same,"JNK activation by HNE alone, mock-transfected cells",JNK pathway activation [2],activated JNK
